This note sets out measurements from PubChem BioAssay (NCI).

Some test systems named below: SW-620 colon; SK-MEL-5 melanoma; LOX IMVI melanoma; SNB-19 CNS; HCT-15 colon; MDA-N; SK-OV-3 ovarian; NCI/ADR-RES ovarian; MOLT-4 leukemia; MDA-MB-231 breast; NCI-H522 lung; HS 578T breast; UACC-62 melanoma; SF-295 CNS; OVCAR-8 ovarian.
Holding throughout (test): DTP human tumour cell line panel, 48 h

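Protocol summary: plate cells (96-well), add compound at 5 concentrations, incubate 48 h, interpolate endpoints linearly. TGI is the concentration that stops growth completely.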

The TGI is the concentration giving total growth inhibition. Read a high TGI as less potent growth arrest. As for `CC(=O)Nc1ccc(NC(=O)CC(=O)Nc2ccc(NC(C)=O)cc2)cc1`, the TGI is above 100 µM in the assay with SW-620 colon; above 100 µM in the assay with SK-MEL-5 melanoma; above 100 µM with LOX IMVI melanoma; above 100 µM in the assay with SNB-19 CNS; 61.9 µM in the assay on HCT-15 colon; above 100 µM in the assay with MDA-N. Moreover, the TGI with SK-OV-3 ovarian was 65.9 µM; in the assay on NCI/ADR-RES ovarian, above 100 µM; in the assay on MOLT-4 leukemia it was above 100 µM; in the assay with MDA-MB-231 breast, above 100 µM; in the assay with NCI-H522 lung it was above 100 µM; in the assay on HS 578T breast, above 100 µM. Further, the TGI in the assay with UACC-62 melanoma was 23.4 µM; with SF-295 CNS, above 100 µM; in the assay on OVCAR-8 ovarian, above 100 µM.
On to `CN(C(=O)[C@H](NC(=O)OCc1ccccc1)c1ccccc1)C1CCCCC1N1CCCC1` (stereo not given in full), for which the TGI in the assay with SW-620 colon is above 100 µM; in the assay on SK-MEL-5 melanoma, 41.2 µM; in the assay with LOX IMVI melanoma it was above 100 µM; in the assay with SNB-19 CNS it was above 100 µM; in the assay on HCT-15 colon, above 100 µM; in the assay with MDA-N, above 100 µM. Moreover, the TGI was above 100 µM in the assay with SK-OV-3 ovarian; above 100 µM in the assay with NCI/ADR-RES ovarian; above 100 µM in the assay on MOLT-4 leukemia; above 100 µM in the assay with MDA-MB-231 breast; above 100 µM in the assay on NCI-H522 lung; 77.2 µM in the assay with HS 578T breast. For the same compound, the TGI in the assay with UACC-62 melanoma, in the assay with SF-295 CNS and with OVCAR-8 ovarian was above 100 µM in each case.
As to `C=C1C(=O)OC2C1CCC(=C)C1CC(O)C(=C)C12` (stereo not given), the TGI turned out to be 43.6 µM in the assay with SW-620 colon; 30.6 µM in the assay on SK-MEL-5 melanoma; 20.9 µM with LOX IMVI melanoma; 66.6 µM with SNB-19 CNS; 25.1 µM with HCT-15 colon; 26.7 µM with MDA-N. The TGI with SK-OV-3 ovarian is above 100 µM; in the assay with NCI/ADR-RES ovarian it was 54.9 µM; with MOLT-4 leukemia it was 25 µM; in the assay on MDA-MB-231 breast it was 31.6 µM; with NCI-H522 lung it was 6.39 µM; in the assay on HS 578T breast, above 100 µM. Further, the results for the TGI in the assay with UACC-62 melanoma, with SF-295 CNS and with OVCAR-8 ovarian were 26.6 µM, above 100 µM and 60.4 µM, respectively.
Turning to `c1ccc(CN2CCC(=NN3CCCCC3)CC2)cc1`, the TGI in the assay with SW-620 colon, with SK-MEL-5 melanoma, with LOX IMVI melanoma, in the assay on SNB-19 CNS, in the assay with HCT-15 colon and with MDA-N was above 100 µM throughout. Also, the total growth inhibition concentration (TGI) in the assay on SK-OV-3 ovarian, in the assay on NCI/ADR-RES ovarian, in the assay on MOLT-4 leukemia, with MDA-MB-231 breast, in the assay with NCI-H522 lung and in the assay on HS 578T breast was above 100 µM in each case. The TGI in the assay with UACC-62 melanoma, in the assay with SF-295 CNS and in the assay with OVCAR-8 ovarian was above 100 µM each time.
On to `Nc1nc(Cl)cc(NCC2(CO)CCCCC2)n1`, for which the concentration for total growth inhibition (TGI) with SW-620 colon, in the assay with SK-MEL-5 melanoma, with LOX IMVI melanoma, in the assay with SNB-19 CNS, in the assay with HCT-15 colon and with MDA-N was above 100 µM throughout. Besides, the TGI in the assay on SK-OV-3 ovarian, with NCI/ADR-RES ovarian, in the assay on MOLT-4 leukemia, in the assay with MDA-MB-231 breast, with NCI-H522 lung and with HS 578T breast was above 100 µM in each case. Besides, the TGI with UACC-62 melanoma, in the assay with SF-295 CNS and in the assay with OVCAR-8 ovarian was above 100 µM in each case.
In the case of `CN1C(=O)c2ccccc2C(O)(c2ccccc2)C1(O)c1ccccc1` (stereo not given), the TGI with SW-620 colon, with SK-MEL-5 melanoma, in the assay with LOX IMVI melanoma, in the assay on SNB-19 CNS, in the assay on HCT-15 colon and with MDA-N was above 100 µM throughout. In addition, the TGI in the assay on SK-OV-3 ovarian, in the assay with NCI/ADR-RES ovarian, in the assay on MOLT-4 leukemia, with MDA-MB-231 breast, with NCI-H522 lung and in the assay with HS 578T breast was above 100 µM each time. In addition, the TGI in the assay with UACC-62 melanoma, with SF-295 CNS and in the assay with OVCAR-8 ovarian was above 100 µM each time.
`C/C=C1\CC(C(=O)OCC)CCCCCCC1=O` (stereo not given): the TGI with SW-620 colon, in the assay with SK-MEL-5 melanoma, in the assay on LOX IMVI melanoma, in the assay with SNB-19 CNS, with HCT-15 colon and in the assay with MDA-N was above 100 µM each time. The TGI in the assay on SK-OV-3 ovarian, in the assay on NCI/ADR-RES ovarian, in the assay with MOLT-4 leukemia, in the assay with MDA-MB-231 breast, in the assay with NCI-H522 lung and in the assay with HS 578T breast was above 100 µM throughout. Moreover, the TGI in the assay on UACC-62 melanoma, in the assay with SF-295 CNS and with OVCAR-8 ovarian was above 100 µM throughout.
Take `CC(=O)C(N1CCCCC1)C(O)(C(F)(F)F)C(F)(F)F` (stereo not given): the concentration for total growth inhibition (TGI) in the assay on SW-620 colon, in the assay on SK-MEL-5 melanoma, with LOX IMVI melanoma, in the assay with SNB-19 CNS, with HCT-15 colon and in the assay with MDA-N was above 100 µM each time. Moreover, the TGI in the assay with SK-OV-3 ovarian, in the assay on NCI/ADR-RES ovarian, with MOLT-4 leukemia, in the assay on MDA-MB-231 breast, in the assay on NCI-H522 lung and in the assay on HS 578T breast was above 100 µM throughout. For the same compound, the TGI in the assay with UACC-62 melanoma, in the assay on SF-295 CNS and with OVCAR-8 ovarian was above 100 µM each time.
For the compound `O=Cc1c2c(cc3c1CC1(C3)Cc3cc4c(c(C=O)c3C1)CCCC4)CCCC2`, the concentration for total growth inhibition (TGI) in the assay with SW-620 colon was above 100 µM; with SK-MEL-5 melanoma it was above 31.6 µM; with LOX IMVI melanoma, above 31.6 µM; in the assay on SNB-19 CNS, above 100 µM; with HCT-15 colon, above 31.6 µM; in the assay on MDA-N it was above 31.6 µM. Besides, the TGI is above 31.6 µM with SK-OV-3 ovarian; above 31.6 µM with NCI/ADR-RES ovarian; 23.2 µM in the assay with MOLT-4 leukemia; above 31.6 µM in the assay on MDA-MB-231 breast; 27.3 µM in the assay on NCI-H522 lung; above 31.6 µM in the assay with HS 578T breast. The TGI in the assay on UACC-62 melanoma, in the assay on SF-295 CNS and with OVCAR-8 ovarian was above 31.6 µM throughout.
